Experimental data published in article PMC12431657, “Discovery and mechanistic insights of dibenzoylmethane as a broad spectrum inhibitor of coronavirus” (PLOS Pathogens, 2025).
Where “and” joins values, the source holds several entries; their conditions need not be identical. Equal entries are not always repeated. Structures can show the parent of a compound that is named as a salt. Where two headings read alike, the source gives them in different places.

Legend:
[1] = system: HCoV-OC43; assay: microbe, parasite or virus in culture; type: cell-based; settings: for inhibition at 10 µM: Betacoronavirus 1, OC43, 24 h, read-out: OC43 Inhibition rate
[2] = system: Huh-7 cells; assay: Cytotoxicity assay (CCK-8), Huh-7 cells
[3] = system: HCoV-OC43; assay: Time-of-addition assay; type: cell-based
Procedure: To obtain further insight into the stage at which DBM inhibits the replication of HCoV-OC43 and other HCoVs, RD cells were incubated with compounds, including DBM, remdesivir (RDV), and chloroquine (CQ), at different stages of viral infection. Viral RNA from the supernatant was extracted and quantitatively analysed via qRT-PCR. […] For the viral binding assay, cells were cultured in the presence or absence of DBM at different concentrations for 1 hour before being infected with HCoV-OC43 at an MOI of 50, and then were placed on ice for 2 hours for the viral particles to bind to the membrane of the host cells, followed by washing with PBS. […] In addition to binding to receptors from host cells, the spike proteins of HCoV-OC43 could also trigger membrane fusion when HCoV-OC43 spike plasmid-transfected 293T cells were seeded together with RD cells as target cells, and the addition of DBM had no effect on this process (S5C Fig). To examine whether DBM inhibits viral internalisation, cells were inoculated with HCoV-OC43 for 1 hour on ice before being treated with either DBM or DMSO, and CQ was included to prevent endosomal acidification. Subsequently, HCoV-OC43 nucleocapsid proteins were immunostained with CoraLite Plus 488 to assess viral internalisation via confocal microscopy. […] To determine whether DBM influences viral release, we quantified viral RNA both intracellularly and in the supernatant.
To evaluate the effects of DBM on the life cycle of HCoV-229E and HCoV-OC43, fresh culture medium containing 0.6 μM DBM, 0.1 μM remdesivir (RDV), or 10 μM chloroquine (CQ) was supplemented with preseeded cells at different time points relative to infection (entry group: 0 to –2 hours; postinfection group: 2–12 hours; and full-time group: 0 to –12 hours). DMSO served as the control. At 24 hours postinfection, the number of intracellular virus RNA copies was quantified by qRT-PCR as previously described.

[4] = system: HCoV-229E; assay: Antiviral activity in vitro, viral RNA copies by qRT-PCR, HCoV-229E in Huh-7 cells; type: cell-based; set-up: EC50 (229E, Huh-7): dose-response value per replicate: scale not given here
[5] = system: HCoV-229E; assay: Antiviral activity in vitro, qRT-PCR, HCoV-229E in MRC-5 cells; type: cell-based
[6] = system: HCoV-OC43; assay: Antiviral activity in vitro, qRT-PCR, HCoV-OC43 in RD cells; type: cell-based; set-up: EC50 (OC43, RD): dose-response value per replicate: concentration or dose not given beside the values
[7] = system: HCoV-OC43; assay: Antiviral activity in vitro, qRT-PCR, HCoV-OC43 in Huh-7 cells; type: cell-based; settings: Betacoronavirus 1, OC43, Huh-7, 24 h, read-out: EC50 HCoV-OC43 (Huh-7)
[8] = system: HCoV-OC43; settings: Ingenol 3,20-dibenzoate 10 mpk oral QD; day 2; one value per mouse
[9] = system: HCoV-229E; assay: HTS luminescent cell viability assay, HCoV-229E infection; type: cell-based; settings: for inhibition at 10 µM: Human coronavirus 229E, 24 h, read-out: 229E Inhibition rate
[10] = system: HCoV-229E; set-up: species or system Huh-7; HTS, protection from HCoV-229E induced cell death, luminescent cell viability (CellCounting-Lite 2.0), inhibition rate; settings: 24 h, 10 µM; inhibitor
[11] = system: HCoV-OC43; set-up: species or system RD; HTS, protection from HCoV-OC43 induced cell death, luminescent cell viability (CellCounting-Lite 2.0), inhibition rate; settings: 24 h, 10 µM; inhibitor
[12] = system: RD cells; type: cell-based
[13] = system: HCoV-OC43; assay: HCoV-OC43 replication in siRNA-transfected cells; type: cell-based; settings: replicates
[14] = compound 10 μM, 24 h postinfection

CC[C@@]1(O)C(=O)OCc2c1cc1n(c2=O)Cc2cc3c(N)cccc3nc2-1 [9-amino-CPT]
OC43 Inhibition rate [1, 14]: -9.5%

C=C(C)C(CC=C(C)C)Cc1c(O)cc(OC)c2c1O[C@H](c1ccc(O)cc1OC)CC2=O (stereo partly drawn) [(2S)-2’-methoxykurarinone]
selectivity index (SI) ([2]; CC50 versus EC50, HCoV-229E in Huh-7 and HCoV-OC43 in RD cells): below 25

C[S@@+]([O-])CCCCN=C=S [(R)-sulforaphane]
selectivity index (SI) [2]: below 25

CCN(CC)CCCC(C)Nc1ccnc2cc(Cl)ccc12 (stereo not shown) [CQ]
time-of-addition, viral inhibition [3]: 99.3

CC1=C[C@]23C(=O)[C@@H](C=C(COC(=O)c4ccccc4)[C@@H](O)[C@]2(O)[C@H]1OC(=O)c1ccccc1)[C@H]1[C@@H](C[C@H]3C)C1(C)C [Ingenol 3,20-dibenzoate, ingenol 3,20-dibenzoate]
EC50 ([4]; Human coronavirus 229E, Huh-7, 24 h, read-out: EC50 HCoV-229E (Huh-7)): < 80 nM | HCoV-229E, MRC-5: inhibition at the concentration (Fig2B) [5]: 90.2 | EC50 ([5]; Human coronavirus 229E, MRC5, 24 h, read-out: EC50 HCoV-229E (MRC-5)): 100 nM | EC50 ([6]; Betacoronavirus 1, OC43, RD, 24 h, read-out: EC50 HCoV-OC43 (RD)): < 80 nM | EC50 [7]: < 80 nM | Body weight changes [8]: DIED

CO[C@@H]1C[C@@H](C[C@H]2CC[C@H](C)[C@H]([C@@H](C)C(=O)O)O2)O[C@]2(O[C@](C)([C@H]3CC[C@@](C)([C@@H]4O[C@@H]([C@H]5O[C@@](O)(CO)[C@H](C)C[C@@H]5C)C[C@@H]4C)O3)C[C@H]2C)[C@@H]1C [Nigericin (sodium salt)]
229E Inhibition rate ([9]; 10 µM): 0.0% | OC43 Inhibition rate ([1]; 10 µM): 8.7%

O=C(O)c1cc(C(=O)O)c2c(n1)C(=O)C(=O)c1cc(C(=O)O)[nH]c1-2 [Pyrroloquinoline quinone (disodium salt)]
229E Inhibition rate [9, 14]: 4.0% | OC43 Inhibition rate [1, 14]: -0.3%

O=C(O)c1cc(C(=O)O)c2c(n1)C(=O)C(=O)c1cc(C(=O)O)[nH]c1-2 [Pyrroloquinoline quinone]
inhibition at 10 µM [9]: 4.2% | inhibition at 10 µM [1]: -0.2%

Nc1ncnc2c1ccn2[C@@H]1O[C@H](CO)[C@@H](O)[C@H]1O [Tubercidin]
inhibition at 10 µM [9]: 12.9% | inhibition at 10 µM [1]: 1.9%

C[C@@H]1[C@H](O)[C@@H](C)/C=C/C=C/C=C/C=C/C=C/C=C/C=C/[C@H](O[C@@H]2O[C@H](C)[C@@H](O)[C@H](N)[C@@H]2O)C[C@@H]2O[C@](O)(C[C@@H](O)C[C@@H](O)[C@H](O)CC[C@@H](O)C[C@@H](O)CC(=O)O[C@H]1C)C[C@H](O)[C@H]2C(=O)O [amphotericin B, reference compound]
selectivity index (SI) [2]: below 25

COc1ccc(-c2oc3c(CC=C(C)C)c(O)cc(O)c3c(=O)c2O[C@@H]2O[C@@H](C)[C@H](O)[C@@H](O)[C@H]2O)cc1 [baohuoside I]
selectivity index (SI) [2]: below 25

COC[C@@H]1CCCN1S(=O)(=O)c1ccc2c(c1)C(=O)C(=O)N2 [caspase-3/7 inhibitor I, (S)-(+)-5-[1-(2-methoxymethylpyrrolidinyl)sulfonyl]isatin, reference compound]
suppression of viral replication ([6]; HCoV-OC43, cell line not printed (S6C Fig)): not effective

CN[C@@H](C)[C@H]1[C@H](O)C[C@@]2(C)[C@@H]3CC[C@H]4C(C)(C)[C@@H](NC)CC[C@@]45C[C@@]35CC[C@]12C [cyclovirobuxine D]
EC50 (229E, Huh-7): dose-response value per replicate [4]: 87.1 and 91.6 and 92.1 and 83.4 and 77.4 and 88.7 and 0.1 (10×) and 27 and 13.3 | EC50 (OC43, RD): dose-response value per replicate [6]: 99.7 (3×) and 96.3 and 96.5 and 96.2 and 73.1 and 73 (2×) and 5.5 and 61.2 and 59.8 and 79.4 and 78.3 and 79.9 and 42.6 and 41.4 and 42 | selectivity index (SI) [2]: below 25

COC(=O)[C@H]1[C@H]2C[C@@H]3c4[nH]c5ccccc5c4CCN3C[C@H]2C[C@@H](OC(=O)c2cc(OC)c(OC)c(OC)c2)[C@@H]1OC [deserpidine, reference compound]
selectivity index (SI) [2]: below 25

CC(=O)OC/C1=C\[C@H]2[C@@H](OC(=O)/C=C/c3ccccc3)[C@@H](C)C[C@]2(OC(C)=O)C(=O)/C(C)=C/[C@@H]2[C@H](CC1)C2(C)C [euphorbia factor L7a]
selectivity index (SI) [2]: below 25

C=C1C(=O)[C@@]23[C@@H]4OC5O[C@@]2(O)[C@@H](O)[C@@H]2C(C)(C)CC[C@@H](O)[C@]52[C@@H]3CC[C@@H]14 [ponicidin]
selectivity index (SI) [2]: below 25

C=C(C)[C@H](CC=C(C)C)Cc1c(O)cc(O)c2c1O[C@H](c1ccc(O)cc1O)CC2=O [sophoraflavanone G]
selectivity index (SI) [2]: below 25

C[C@H]1CCC[C@@H](O)CCC/C=C/c2cc(O)cc(O)c2C(=O)O1 [β-Zearalenol]
229E Inhibition rate [10]: 60.6 | OC43 Inhibition rate [11]: 39.8

ALG11-2 (sense GGUGCCUGUGCAAGUUGUUTT; antisense AACAACUUGCACAGGCACCTT; chemistry not given here)
Relative mRNA content of the targeted gene after siRNA knockdown (Fig5D) [12]: 0.16 and 0.22 and 0.13

CASP3-1 (sense CCGACAAGCUUGAAUUUAUTT; antisense AUAAAUUCAAGCUUGUCGGTT; chemistry not given here)
HCoV-OC43 replication in siRNA-transfected cells, inhibition [13]: -3.8 and -7.6 and -9.9 and 15.1 and 8.0 and 7.0

CASP3-2 (sense CCCUGGACAACAGUUAUAATT; antisense UUAUAACUGUUGUCCAGGGTT; chemistry not given here)
Relative mRNA content following siRNA knockdown [12]: 0.000229 and 0.000196 and 0.000194 and 0.000282 and 0.000327 and 0.000307 | HCoV-OC43 replication in siRNA-transfected cells, inhibition [13]: 3.7 and -8.9 and -0.3 and 15.3 and 18.4 and 14.9

CASP7-1 (sense GUGCCAAGAUGCAAGAUCUTT; antisense AGAUCUUGCAUCUUGGCACTT; chemistry not given here)
Relative mRNA content following siRNA knockdown [12]: 0.04453 and 0.02767 and 0.03038 and 0.03195 and 0.02491 and 0.0301 | HCoV-OC43 replication in siRNA-transfected cells, inhibition [13]: -1.2 and -4.0 and -5.1 and 6.9 and -3.2 and 8.5

CASP7-2 (sense GAGGAUUCAGCAAAUGAAGTT; antisense CUUCAUUUGCUGAAUCCUCTT; chemistry not given here)
Relative mRNA content following siRNA knockdown [12]: 0.04124 and 0.03671 and 0.03839 and 0.05589 and 0.05554 and 0.05883 | HCoV-OC43 replication in siRNA-transfected cells, inhibition [13]: -52.2 and -54.8 and -44.2 and 4.9 and 14.1

CYP1A1-2 (sense GGGUUUGACACAGUCACAATT; antisense UUGUGACUGUGUCAAACCCTT; chemistry not given here)
Relative mRNA content of the targeted gene after siRNA knockdown (Fig5D) [12]: 0.00

ELAC2-2 (sense GCAGAGGGAUGCCAUUAUUTT; antisense AAUAAUGGCAUCCCUCUGCTT; chemistry not given here)
Relative mRNA content of the targeted gene after siRNA knockdown (Fig5D) [12]: 0.20 and 0.16 and 0.32

IDH3G-1 (sense GCAAGAGUAUCGCCAAUAATT; antisense UUAUUGGCGAUACUCUUGCTT; chemistry not given here)
Relative mRNA content of the targeted gene after siRNA knockdown (Fig5D) [12]: 0.00

IDH3G-2 (sense GCACGUGAGUUCCAAUGCUTT; antisense AGCAUUGGAACUCACGUGCTT; chemistry not given here)
Relative mRNA content of the targeted gene after siRNA knockdown (Fig5D) [12]: 0.00

UBP1-1 (sense GCACCCACCCUUUCAGUAUTT; antisense AUACUGAAAGGGUGGGUGCTT; chemistry not given here)
Relative mRNA content of the targeted gene after siRNA knockdown (Fig5D) [12]: 0.42 and 0.21 and 0.33
